Non-standard residues stand in square brackets, D forms with d. Residues, ends and D or L forms follow the SMILES beside them. *: point of attachment. X1 = Fc1ccc(-c2csc(N3CCOCC3)n2)c(OCCOCCOCCN*)c1F; X2 = O=C(NCCCCCCN*)c1cccc2sc(N3CCOCC3)nc12; Dip = N[C@H](C(=O)O)C(c1ccccc1)c1ccccc1; Chg = N[C@H](C(=O)O)C1CCCCC1; NMeA = CN[C@@H](C)C(=O)O
How the values were obtained:
Type in all cases: physicochemical
[1] = Kinetic solubility of the compound incubated for 60 mins under shaking condition by UV-Vis spectroscopic analysis; conditions: 1 h
[2] = Kinetic solubility of the compound incubated for 60 mins under shaking condition by UHPLC-MS analysis; conditions: 1 h
[3] = Distribution coefficient, logD of compound in n-Octanol/PBS at pH 7.4 incubated for 30 mins under shaking condition by UV-Vis spectroscopic analysis; conditions: for logD at 0.5 h: n-octanol/PBS, pH 7.4; for logD: octanol/water, pH 7.4, 0.5 h, BLD = below limit of detection
[4] = Distribution coefficient, logD of compound in n-Octanol/PBS at pH 7.4 incubated for 30 mins under shaking condition by UHPLC-MS analysis

Row | Compound | log(Kinetic_solubility) [1] | log(Kinetic_solubility) [2] | logD at 0.5 h [3] | logD at 0.5 h [4] | log(Kinetic_solubility) ([1]; BLD = below limit of detection) | logD [3] | log(Kinetic_solubility) ([2]; BLD = below limit of detection)
1 | Cc1ncsc1-c1ccc(CNC(=O)[C@@H]2C[C@@H](O)CN2C(=O)[C@@H](NC(=O)COCCOCCOCCOCCOCCOCC(=O)N[C@H](C(=O)N2C[C@H](O)C[C@H]2C(=O)NCc2ccc(-c3scnc3C)cc2)C(C)(C)C)C(C)(C)C)cc1 | -3.25 | -3.24 | 3.09 | 3 | – | – | –
2 | Cn1c(=O)n(C)c2cc(CNCCOCCOCCNCC3CCN(c4ccc(C(=O)N[C@H]5CC[C@H](Oc6ccc(C#N)c(Cl)c6)CC5)nn4)CC3)ccc21 | -3.07 | -3.06 | 2.45 | 2.52 | – | – | –
3 | Cc1ncsc1-c1ccc([C@H](C)NC(=O)[C@@H]2C[C@@H](O)CN2C(=O)[C@@H](NC(=O)CCCCCCCCCCC(=O)N2CCN(C(=O)c3cc(Cc4n[nH]c(=O)c5ccccc45)ccc3F)CC2)C(C)(C)C)cc1 | – | -7.21 | – | 5 | Bld | Bld | –
4 | O=C1CCC(N2C(=O)c3cccc(NCCOCCOCCOCCn4cc(COc5ccc(N(C(=O)CCl)C(C(=O)NCCc6ccccc6)c6cccs6)cc5Cl)nn4)c3C2=O)C(=O)N1 (centres undefined) | – | -6.77 | 3.92 | 4.27 | Bld | – | –
5 | CC(=O)c1c(C)c2cnc(Nc3ccc(N4CCN(CCOCCOCCOCCNC(=O)COc5cccc6c5C(=O)N(C5CCC(=O)NC5=O)C6=O)CC4)cn3)nc2n(C2CCCC2)c1=O (centres undefined) | -4.72 | -5.05 | 2.17 | 2.29 | – | – | –
6 | COc1ccc2c(c1)c(CC(=O)NCCN1CCN(CCOCCOCC(=O)N[C@H](C(=O)N3C[C@H](O)C[C@H]3C(=O)N[C@@H](C)c3ccc(-c4scnc4C)cc3)C(C)(C)C)CC1)c(C)n2C(=O)c1ccc(Cl)cc1 | -4.59 | -4.62 | – | 5.1 | – | Bld | –
7 | CCOC(=O)c1c(C)n(Cc2ccccc2)c2ccc(OCCCCCCCCCCC(=O)N[C@H](C(=O)N3C[C@H](O)C[C@H]3C(=O)N[C@@H](C)c3ccc(-c4scnc4C)cc3)C(C)(C)C)cc12 | – | – | – | 5.2 | Bld | Bld | Bld
8 | Cn1c(=O)n(C)c2cc(CNCCCNCC3CCN(c4ccc(C(=O)N[C@H]5CC[C@H](Oc6ccc(C#N)c(Cl)c6)CC5)nn4)CC3)ccc21 | -4.28 | -4.14 | – | 4.43 | – | Bld | –
9 | Cc1ncsc1-c1ccc([C@H](C)NC(=O)[C@@H]2C[C@@H](O)CN2C(=O)[C@@H](NC(=O)CCCCCCOc2ccc3c(c2)c(C(=O)O)c(C)n3Cc2ccccc2)C(C)(C)C)cc1 | – | -5.8 | – | 5 | Bld | Bld | –
10 | Cc1ccc(-c2csc(N3CCOCC3)n2)c(OCC(=O)NCCCCC(=O)N[C@H](C(=O)N2C[C@H](O)C[C@H]2C(=O)N[C@@H](C)c2ccc(-c3scnc3C)cc2)C(C)(C)C)c1C | -4.89 | -5.05 | – | 5.02 | – | Bld | –
11 | Cc1ncsc1-c1ccc([C@H](C)NC(=O)[C@@H]2C[C@@H](O)CN2C(=O)[C@@H](NC(=O)CCCCn2cc(CCCC(=O)N3CCN(C(=O)c4cc(Cc5n[nH]c(=O)c6ccccc56)ccc4F)CC3)nn2)C(C)(C)C)cc1 | -4.37 | -4.34 | 2.89 | 3 | – | – | –
12 | Cc1ncsc1-c1ccc([C@H](CC(=O)NCCCCCCCCCCC(=O)N[C@H]2C(C)(C)[C@H](Oc3ccc(C#N)c(Cl)c3)C2(C)C)NC(=O)[C@@H]2C[C@@H](O)CN2C(=O)[C@@H](NC(=O)C2(F)CC2)C(C)(C)C)cc1 | – | – | – | 4.9 | Bld | Bld | Bld
13 | CCOC(=O)c1c(C)n(Cc2ccccc2)c2ccc(OCCCCCCCCC(=O)N[C@H](C(=O)N3C[C@H](O)C[C@H]3C(=O)N[C@@H](C)c3ccc(-c4scnc4C)cc3)C(C)(C)C)cc12 | – | – | – | 5.21 | Bld | Bld | Bld
14 | Cc1ncsc1-c1ccc([C@H](C)NC(=O)[C@@H]2C[C@@H](O)CN2C(=O)[C@@H](NC(=O)COCCOCCNC(=O)COc2c(-c3csc(N4CCOCC4)n3)ccc(F)c2F)C(C)(C)C)cc1 | -4.47 | -4.52 | 3.5 | 3.94 | – | – | –
15 | CCOC(=O)c1c(C)n(Cc2ccccc2)c2ccc(OCCCCCCC(=O)N[C@H](C(=O)N3C[C@H](O)C[C@H]3C(=O)N[C@@H](C)c3ccc(-c4scnc4C)cc3)C(C)(C)C)cc12 | – | – | – | 5.15 | Bld | Bld | Bld
16 | CN[C@@H](C)C(=O)N[C@H](C(=O)N1CCC[C@H]1C(=O)N[C@H](C(=O)NCCCCCCNC(=O)c1cccc2sc(N3CCOCC3)nc12)C(c1ccccc1)c1ccccc1)C1CCCCC1 (H-[NMeA][Chg]P[Dip]-X2) | -4.66 | -4.72 | – | 5.1 | – | Bld | –
17 | N#Cc1ccc(O[C@H]2CC[C@H](NC(=O)c3ccc(N4CCC(CN5CCN(c6cc7c(cc6F)C(=O)N(C6CCC(=O)NC6=O)C7=O)CC5)CC4)nn3)CC2)cc1Cl (some centres undefined) [BAVDEGALUTAMIDE] | – | – | – | 5.38 | Bld | Bld | Bld
18 | COc1ccc2c(c1)c(CC(=O)N1CCN(CCC(=O)N[C@H](C(=O)N3C[C@H](O)C[C@H]3C(=O)N[C@@H](C)c3ccc(-c4scnc4C)cc3)C(C)(C)C)CC1)c(C)n2C(=O)c1ccc(Cl)cc1 | – | -6.1 | – | 5.5 | Bld | Bld | –
19 | Cc1ncsc1-c1ccc([C@H](C)NC(=O)[C@@H]2C[C@@H](O)CN2C(=O)[C@@H](NC(=O)CN2CCN(C(=O)C[C@@H]3N=C(c4ccc(Cl)cc4)c4c(sc(C)c4C)-n4c(C)nnc43)CC2)C(C)(C)C)cc1 | -4.79 | -4.9 | – | 4.56 | – | Bld | –
20 | Cc1ncsc1-c1ccc([C@H](CC(=O)N2CCC(N3CCC(C#Cc4ccc(C(=O)N[C@H]5C(C)(C)[C@H](Oc6ccc(C#N)c(Cl)c6)C5(C)C)cc4)CC3)CC2)NC(=O)[C@@H]2C[C@@H](O)CN2C(=O)[C@@H](NC(=O)C2(F)CC2)C(C)(C)C)cc1 | – | – | – | 5.5 | Bld | Bld | Bld
21 | COc1ccc2c(c1)c(CC(=O)NCCCCC(=O)N[C@H](C(=O)N1C[C@H](O)C[C@H]1C(=O)N[C@@H](C)c1ccc(-c3scnc3C)cc1)C(C)(C)C)c(C)n2C(=O)c1ccc(Cl)cc1 | – | -6.1 | – | 5.47 | Bld | Bld | –
22 | CN[C@@H](C)C(=O)N[C@H](C(=O)N1CCC[C@H]1C(=O)N[C@H](C(=O)NCCOCCOCCOc1c(-c2csc(N3CCOCC3)n2)ccc(F)c1F)C(c1ccccc1)c1ccccc1)C1CCCCC1 (H-[NMeA][Chg]P[Dip]-X1) | -4.49 | -4.55 | – | 5.1 | – | Bld | –
23 | O=C(COc1c(-c2csc(N3CCOCC3)n2)ccc(F)c1F)NCCCCCCCCCCNc1ccc2nnn(C3CCC(=O)NC3=O)c(=O)c2c1 (centres undefined) | – | – | – | 4.93 | Bld | Bld | Bld
24 | Cn1c(=O)n(C)c2cc(CNCCOCCNCC3CCN(c4ccc(C(=O)N[C@H]5CC[C@H](Oc6ccc(C#N)c(Cl)c6)CC5)nn4)CC3)ccc21 | -3.69 | -3.64 | 3.25 | 3.7 | – | – | –
25 | COc1ccc2c(c1)c(CC(=O)NCCN1CCN(C(=O)CCC(=O)N[C@H](C(=O)N3C[C@H](O)C[C@H]3C(=O)N[C@@H](C)c3ccc(-c4scnc4C)cc3)C(C)(C)C)CC1)c(C)n2C(=O)c1ccc(Cl)cc1 | -5.22 | -5.7 | – | 4.8 | – | Bld | –
26 | Cc1ncsc1-c1ccc(CNC(=O)[C@@H]2C[C@@H](O)CN2C(=O)[C@@H](NC(=O)CCCCOCCCCCOCCCCCCNc2cccc3c2C(=O)N(C2CCC(=O)NC2=O)C3=O)C(C)(C)C)cc1 (some centres undefined) | – | -7.05 | – | 5.2 | Bld | Bld | –
